Assay results published in the supplement of paper PMC10307832.

Experiments:
Test in all cases: relative viability (nuclei count vs DMSO), 5 days (fraction); higher = more cells survive
[1] = compound: Cc1nc(Nc2ncc(C(=O)Nc3c(C)cccc3Cl)s2)cc(N2CCN(CCO)CC2)n1 [Dasatinib] + COc1cccc2cc(-c3nc([C@H]4CC[C@H](C(=O)O)CC4)n4ncnc(N)c34)[nH]c12 [OSI-027] (partner 0.5 µM)
Summary of the method: (§1)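 One day after seeding in 1536-well plates, lung cancer cell lines were dosed by pin tool. Dosing was either single-drug or a fixed anchor-drug dose plus five library-drug doses (not always all listed) in √10 steps. After 5 days, nuclei were stained in one fix-and-stain step and counted on 4× images, and relative viability is the nuclei count of treated wells over that of vehicle wells, given as the median of duplicate plates.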

[2] = compound: Cc1nc(Nc2ncc(C(=O)Nc3c(C)cccc3Cl)s2)cc(N2CCN(CCO)CC2)n1 [Dasatinib] + CS(=O)(=O)CCNCc1ccc(-c2ccc3ncnc(Nc4ccc(OCc5cccc(F)c5)c(Cl)c4)c3c2)o1 [Lapatinib] (partner 2 µM)
Summary of the method: as §1

[3] = compound: Cc1nc(Nc2ncc(C(=O)Nc3c(C)cccc3Cl)s2)cc(N2CCN(CCO)CC2)n1 [Dasatinib] + N=C(N)NC(=N)NCCc1ccccc1 [Phenformin] (partner 250 µM)
Summary of the method: as §1

[4] = compound: Cc1nc(Nc2ncc(C(=O)Nc3c(C)cccc3Cl)s2)cc(N2CCN(CCO)CC2)n1 [Dasatinib] + C[C@]1(O)C[C@@H](c2nc(-c3ccc4ccc(-c5ccccc5)nc4c3)c3c(N)nccn32)C1 [Linsitinib] (partner 1 µM)
Summary of the method: as §1

Cell Line	relative viability ([1]; first compound 0.005 µM)	relative viability ([1]; first compound 0.01581 µM)	relative viability ([1]; first compound 0.05 µM)	relative viability ([1]; first compound 0.1581 µM)	relative viability ([1]; first compound 0.5 µM)	relative viability ([2]; first compound 0.005 µM)	relative viability ([2]; first compound 0.01581 µM)	relative viability ([2]; first compound 0.05 µM)	relative viability ([2]; first compound 0.1581 µM)	relative viability ([2]; first compound 0.5 µM)	relative viability ([3]; first compound 0.005 µM)	relative viability ([3]; first compound 0.01581 µM)	relative viability ([3]; first compound 0.05 µM)	relative viability ([3]; first compound 0.1581 µM)	relative viability ([3]; first compound 0.5 µM)	relative viability ([4]; first compound 0.005 µM)	relative viability ([4]; first compound 0.01581 µM)	relative viability ([4]; first compound 0.05 µM)	relative viability ([4]; first compound 0.1581 µM)	relative viability ([4]; first compound 0.5 µM)
HCC-827	0.805	0.745	0.557	0.456	0.119	0.173	0.18	0.139	0.16	0.131	0.411	0.362	0.328	0.293	0.104	1.03	1.05	0.971	0.581	0.102
NCI-H1993	0.512	0.524	0.491	0.532	0.554	0.761	0.771	0.776	0.731	0.737	0.416	0.487	0.473	0.525	0.554	0.61	0.756	0.675	0.629	0.597
NCI-H647	0.672	0.303	0.251	0.213	0.118	0.524	0.449	0.393	0.237	0.189	0.465	0.366	0.257	0.197	0.141	1.02	0.46	0.627	0.319	0.192
NCI-H460	0.549	0.474	0.405	0.387	0.17	1.06	0.598	0.743	0.482	0.376	0.47	0.484	0.443	0.336	0.314	0.315	0.229	0.157	0.0338	0.0131
EMC-BAC-2	0.315	0.264	0.259	0.192	0.152	0.936	0.708	0.613	0.667	0.334	0.476	0.326	0.429	0.224	0.172	0.685	0.482	0.525	0.26	0.201
NCI-H23	0.497	0.502	0.615	0.492	0.325	1.01	1.09	0.911	0.539	0.764	0.841	0.752	0.929	0.655	0.607	0.483	0.38	0.505	0.315	0.213
NCI-H1793	0.2	0.238	0.234	0.218	0.147	0.587	0.46	0.349	0.622	0.58	0.319	0.314	0.313	0.264	0.2	0.524	0.644	0.553	0.506	0.472
A-427	0.464	0.338	0.411	0.342	0.37	0.89	1.06	0.893	0.646	0.551	0.326	0.262	0.277	0.266	0.225	1.1	1.14	0.995	0.574	0.535
